{"source": "patent US20250195542A1", "about": "“METABOLIC DISEASE THERAPEUTIC AGENT OR PREVENTIVE AGENT” (Peking University, priority 2022, published 2025)", "key": {"RDH10 [1]": {"molecular_target": "T1, RDH10 (Mus musculus, UniProt Q8VCH7)", "T1 construct": "Take approximately 50 mg of liver tissue from C57BL/6J mice and add 1 mL of RIPA lysis buffer; from tissue; host or cells: mouse liver (C57BL/6J) lysate", "T1 sequence (Q8VCH7 1-341)": "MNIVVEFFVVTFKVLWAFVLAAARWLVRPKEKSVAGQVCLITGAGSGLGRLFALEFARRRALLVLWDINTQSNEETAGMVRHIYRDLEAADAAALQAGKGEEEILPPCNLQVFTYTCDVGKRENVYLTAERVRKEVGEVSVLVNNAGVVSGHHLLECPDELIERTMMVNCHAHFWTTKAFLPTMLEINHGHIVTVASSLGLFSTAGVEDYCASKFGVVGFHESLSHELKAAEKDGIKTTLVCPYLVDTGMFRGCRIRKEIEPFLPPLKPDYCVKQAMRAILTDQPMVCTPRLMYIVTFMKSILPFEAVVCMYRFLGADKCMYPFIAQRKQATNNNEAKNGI", "assay": "Protein fishing (pull-down) with molecular probe and proteomics analysis", "assay_type": "binding, C57BL/6J mice", "settings": "400 μM ACS against 40 μM ACS-biotin", "method": "• 1. Preparation of Liver Protein: Take approximately 50 mg of liver tissue from C57BL/6J mice and add 1 mL of RIPA lysis buffer. Lyse the proteins on ice, then centrifuge at 12,000 rpm for 30 minutes at 4° C. Collect the supernatant, measure the protein concentration using BCA method, and dilute to 1 mg/mL with PBS. • 2. Sample Preparation: Prepare new 1.5 mL EP tubes and divide them into control group, drug group, and competitive inhibition group. Add 100 μL of PBS solution containing 40 μM Biotin to the control group, 100 μL of PBS solution containing 40 μM ACS-biotin (prepared in Example 1) to the drug group, and 100 μL of PBS solution containing 40 μM ACS-biotin and 400 μM ACS to the competitive inhibition group. Then, add 100 μL of liver protein lysate (1 mg/mL) to each tube and incubate on a shaking incubator at 4° C. for 2 hours. • 3. Washing Streptavidin Beads: Add 100 μL of streptavidin beads to new 1.5 mL EP tubes and centrifuge at 2,700 rpm for 1 minute. Discard the supernatant and wash the beads with 100 μL of PBS three times. • 4. Binding and Washing: Add the solutions from step 2 to the washed streptavidin beads. Incubate on a shaking incubator at 4° C. for 2 hours, then centrifuge at 2,700 rpm for 1 minute. Discard the supernatant and wash the beads with 100 μL of PBS three times. • 5. Protein Elution: Add 50 μL of PBS to the beads, mix well, and then add 5×SDS-PAGE sample buffer. Boil for 5 minutes and centrifuge at 13,000 rpm for 5 minutes. Store the supernatant at −20° C. for SDS-PAGE gel electrophoresis. • 6. Protein Detection: Stain with Coomassie Brilliant Blue and cut the gel for proteomics analysis."}, "NASH in MCD model mice [2]": {"test_system": "NASH in MCD model mice", "assay": "H&E liver histology in MCD mice, Example 12", "assay_type": "in vivo, C57BL/6J mice", "settings": "oral 4 weeks, 10 and 20 mg/kg, better than obeticholic acid 10 mg/kg, FIG. 17A", "method": "(§1) Four-week-old male C57BL/6J mice were purchased from the Experimental Animal Center, Peking University Health Science Center. The mice were randomly divided into groups, with 10 mice per group. Methionine choline-deficient diet (MCD) was used to induce NASH, forming the MCD model mice. The model mice were treated with an oral administration of drugs for 4 weeks. After the final treatment, the mice were fasted overnight, and then sacrificed. Serum and liver tissue samples were stored at −80° C., which could be compared with untreated MCD mice (“MCD”) and normal mice (“Nor” or “Normal”). The dosing amounts for each group were as follows: low-dose 25S-Antcin C (“ACS-L”): 10 mg/kg; high-dose 25S-Antcin C (“ACS-H”): 20 mg/kg; obeticholic acid (“OCA”): 10 mg/kg.\nAfter the final treatment, the mice were sacrificed, and the liver tissue samples were fixed overnight in 4% paraformaldehyde, embedded in paraffin, and sectioned. […]"}, "L02 human liver cells": {"test_system": "L02 human liver cells", "assay": "Oleic acid-palmitic acid induced lipid deposition with RDH10 siRNA knockdown, L02 cells (Oil Red O)", "assay_type": "cell-based", "settings": "20 μM"}, "NASH in MCD model mice [3]": {"test_system": "NASH in MCD model mice", "assay": "Serum ALT and AST in MCD mice, Example 12", "assay_type": "in vivo, C57BL/6J mice", "settings": "oral 4 weeks, 10 and 20 mg/kg, better than obeticholic acid 10 mg/kg, FIG. 17B", "method": "as §1\nAfter the final treatment and overnight fasting, mice were anesthetized, and blood was collected from the tail vein. Whole blood was allowed to stand for 2 hours, centrifuged at 6000 rpm for 10 minutes, and the supernatant was used to measure serum alanine aminotransferase (ALT) and aspartate aminotransferase (AST) levels using ALT assay kit and AST assay kit (Bote Biotech, Beijing)."}, "RDH10 [4]": {"molecular_target": "T1, RDH10", "assay": "Cellular thermal shift assay (CETSA / ITDRFCETSA)", "assay_type": "binding", "method": "• 1. Mouse liver total protein (500 μg/mL) was incubated at room temperature for 2 hours with either 25S-Antcin C (100 μM) or an equal volume of DMSO. • 2. After incubation, the 25S-Antcin C-treated group and the DMSO control group were aliquoted into 13 PCR tubes, with 30 μL per tube, and placed on ice. • 3. In a PCR machine, a gradient heating program for CETSA was set up with 12 temperature points (37, 41, 45, 49, 53, 57, 61, 65, 69, 73, 77, 81° C.). The 13 samples from the 25S-Antcin C-treated group and the DMSO control group were heated at each temperature point for 3 minutes, then immediately taken out and incubated at room temperature for 3 minutes, followed by rapid cooling on ice. • 4. The samples were transferred to 1.5 mL EP tubes and centrifuged at 15,000 rpm for 40 minutes at 4° C. • 5. The supernatant was transferred to new EP tubes, mixed with 5×SDS-PAGE loading buffer, and boiled for 5 minutes to denature the proteins. Western Blot was then performed."}, "RDH10 protein": {"molecular_target": "T2, RDH10 protein (Homo sapiens, UniProt Q8IZV5)", "T2 sequence (Q8IZV5 1-341)": "T1 sequence (Q8VCH7 1-341) with K99N, P107H, R278K, V287I", "assay": "Surface plasmon resonance (SPR), Biacore T200", "assay_type": "binding", "settings": "RDH10 immobilized on CM5 chip; 25S-Antcin C 0.78-25 μM; FIG. 15B", "method": "Using a Biacore T200 plasmon surface resonance instrument, RDH10 protein was immobilized on a CM5 sensor chip via an amine coupling reaction. The pH of the RDH10 protein was 4.5, and the final immobilization concentration was 50 μg/mL. The running buffer consisted of 50 mM Tris-Hcl buffer containing […] NaCl, 2 mM MgCl2, 0.05% Tween-20, and 5% DMSO. In the binding experiment, different concentrations of 25S-Antcin C (25, 12.5, 6.25, 3.12, 1.56, 0.78 μM) were dissolved in the running buffer. The flow rate was 30 μL/min, with a contact time of 60 seconds and a dissociation time of 60 seconds. Data were analyzed using Biacore software, and the kinetic analysis calculated the affinity constant (KD value)."}, "[5]": {"test_system": "mouse primary liver cells", "assay": "Oleic acid-palmitic acid induced lipid deposition with RDH10 siRNA knockdown, mouse primary liver cells (Oil Red O)", "assay_type": "cell-based", "settings": "20 μM"}, "[6]": {"settings": "cited from earlier work"}, "[7]": {"settings": "oleic acid-palmitic acid, 24 hours, FIG. 16B"}}, "note": "Changes are numbered by the printed parent chain."}
{"smiles": "C=C(CC[C@@H](C)[C@H]1CC[C@H]2C3=C(C(=O)C[C@]12C)[C@@]1(C)CCC(=O)[C@@H](C)[C@@H]1C[C@@H]3O)[C@H](C)C(=O)O", "note": "[25S-Antcin C]", "values": [{"measurement": "competitive inhibition of probe binding to RDH10 protein", "setting": "RDH10 [1]", "value": "reduces the binding of the molecular probe to the RDH10 protein"}, {"measurement": "liver steatosis and ballooning", "setting": "NASH in MCD model mice [2]", "value": "significantly reduced"}, {"measurement": "effect on reducing lipid deposition in the RDH10 siRNA group", "setting": "L02 human liver cells; RDH10 knockdown", "value": "almost completely lost"}, {"measurement": "lipid droplets, Control siRNA group", "setting": "L02 human liver cells; [7]", "value": "significantly reduced in size"}, {"measurement": "serum ALT levels", "setting": "NASH in MCD model mice [3]", "value": "significantly reduced"}, {"measurement": "serum AST levels", "setting": "NASH in MCD model mice [3]", "value": "significantly reduced"}, {"measurement": "RDH10 protein that did not precipitate", "setting": "RDH10 [4]; 100 μM, among 53-69 °C", "value": "significant increase"}, {"measurement": "stability of RDH10 protein at 61° C. (ITDRFCETSA)", "setting": "RDH10 [4]; constant 61 °C, 0.01-1000 μM, FIG. 15D", "value": "increased with higher concentrations of 25S-Antcin C, stabilizing after 100 μM"}, {"measurement": "CETSA curve of RDH10", "setting": "RDH10 [4]; mouse liver total protein, 100 μM, 37-81 °C, compared to DMSO group, FIG. 15C", "value": "shift in the CETSA curve"}, {"measurement": "Kd", "setting": "RDH10 protein", "value": 8.31, "unit": "µM"}, {"measurement": "effect on reducing lipid deposition in the RDH10 siRNA group", "setting": "[5]; RDH10 knockdown", "value": "almost completely lost"}, {"measurement": "lipid droplets, Control siRNA group", "setting": "[5]; [7]", "value": "significantly reduced in size"}]}
{"smiles": "CC[C@H]1[C@@H](O)[C@@H]2[C@H](CC[C@]3(C)[C@@H]([C@H](C)CCC(=O)O)CC[C@@H]23)[C@@]2(C)CC[C@@H](O)C[C@@H]12", "note": "[obeticholic acid]", "values": [{"measurement": "serious side effects in clinical trials", "setting": "[6]", "value": "severe pruritus"}]}
